Experimental data from patent US9265751B2, “Methods for treating chronic pain” (Nagasaki University, priority 2008, dated 2016).
Entries after “also recorded” stand apart in the source; their conditions may differ.

Assays:
Type in all cases: in vivo, mouse
[1] = system: LPA1 receptor; test: Mechanical stimulus-induced pain test (digitized von Frey) in SART (ICS) stress mice given LPA1 AS-ODN/MS-ODN i.c.v.
Protocol: Exposure to SART (ICS) stress was achieved by repeatedly altering extremely different rearing environmental temperatures. Temperature settings were established at room temperature (24° C.) and cold temperature (4° C.). Rearing cages were placed in environments set at the respective temperatures; the animals were reared, with transfer of the mice only every 30 minutes in the daytime (from 10:00 to 16:30), and at the cold temperature in the nighttime (from 16:30 to 10:00 on the following day). This repeated stress was given for 3 days from 16:30 on the day before stress loading to 10:00 on day 3 of stress loading. A solid food and agar for water supply were always kept in the cage during the above-described stress loading period, to maintain an environment allowing the animals to have free access thereto.
A hypersensitive response induction experiment with ICS stress was applied to mice previously dosed with an antisense oligodeoxynucleotide that complementarily binds to the lysophosphatidic acid (hereinafter, denoted as LPA) receptor gene to inhibit the expression thereof (hereinafter, denoted as AS-ODN) as an animal model of generalized pain disease, and the stress exposure of Production Example 1 was performed.
Ten to twelve C57BL/6J mice at 6 weeks of age (20 to 22 g) were used in a normal control group and an ICS stress loading group.
Using “5′-[…]-3′ (SEQ ID NO:5)” as AS-ODN, BLAST search was performed; it was confirmed that the sequence thereof was specific for the LPA1 receptor. For comparative control, mice dosed with a missense oligodeoxynucleotide having a noncomplementary sequence (hereinafter, denoted as MS-ODN) and mice dosed with artificial cerebro-spinal fluid (ACSF) as Vehicle were used. Using “5′-[…]-3′ (SEQ ID NO:6)” as MS-ODN, BLAST search was performed; it was confirmed that the sequence thereof was not similar to other receptors.
SART (ICS) stress based on Production Example 1 above was loaded on the mice after being given ODN and ACSF, after which pain threshold values were measured, and changes over days were examined.
In Example 3, chronic pains were evaluated on mice loaded with stress based on Production Example and Examples. Regarding how to evaluate chronic pains, pain threshold values were evaluated over days by a mechanical stimulus-induced pain test. The mechanical stimulus-induced pain test was performed according to the digitized von Frey method.
AS-ODN was given by intracerebroventricular administration at 10 μg once daily, starting five days before SART (ICS) stress loading. After pretreatment for 5 consecutive days, SART (ICS) stress was started, and intracerebroventricular administration was performed once a day even during the stress loading period. However, there was no administration on day 3 of stress loading, after which administration was discontinued; a total of 7 administrations were performed. The single-dose volume was 5 μl.
In the same way as the above-described method of treatment, MS-ODN and Vehicle were administered 7 times in total before stress loading and during the stress loading period.
On mice acclimated to the environment on a 5 mm×5 mm-mesh net (adaptation-applied), a custom-made plastic chip was applied to a planta of each mouse under a constant pressure from below. At that time, responding weight threshold values were measured digitally.

[2] = system: LPA2 receptor; test: Mechanical stimulus-induced pain test (digitized von Frey) in SART (ICS) stress mice given LPA2 AS-ODN/MS-ODN i.c.v.
[3] = system: ATX; test: Mechanical nociception test (automated digitized von Frey) in ICS stress mice given ATX-AS/ATX-MS i.c.v.; conditions: P1 to P12 after ICS stress; 10 μg/5 μl i.c.v.
Protocol: ATX-antisense is a drug that suppresses the synthesis of the mRNA of ATX, an LPA synthetase. The ATX-antisense (ATX-AS) used was designed to have the base sequence: “5′-GTCTTGCCATGCCGAGGGAT-3′ (SEQ ID NO:13)”, and the ATX-missense (ATX-MS) used was designed to have the base sequence: “5′-GTTCTCGCAGTCGCAGGAGT-3′ (SEQ ID NO:14)”. The dosage was 10 μg/5 μl both for the antisense and for the missense.
ATX-antisense (operon, 3170003) was given by intracerebroventricular administration on consecutive days starting five days previously, including days of stress loading (FIG. 8A). Doses were given in solution in artificial cerebro-spinal fluid. For control groups, the same amounts of ATX-missense (operon, 3170004) and the solvent were administered, respectively. […]
(§1) Prior to the experiment, each mouse was placed on a rack on a mesh and covered with a cage from above, and the animal was acclimated to the same environment as the experiment for not less than 1 hour. The tip of a plastic chip was pressed vertically against the center of a hind paw of the mouse from below the rack; when the mouse behaved to withdraw the hind leg, the automatically measured value was read. […]
(§2) With the day of completion of ICS loading as P1, pain threshold values were measured on P3, P5, P12 and P19.

[4] = system: PLA2; test: Mechanical nociception test (automated digitized von Frey) in ICS stress mice given BEL i.c.v.; conditions: between P1 and P5, significant change at P3, two doses
Protocol: (§3) As a PLA2 inhibitor, Bromoenol lactone (Cayman chemical) was used. Drug administration was performed twice in total at 10 a.m. before performing repeated cold stimulation in stress loading (FIG. 9A).
(§4) The whole amount of 5 mg of the drug was dissolved in 200 μl of DMSO and dispensed at 20 nmol/10 μl. 384 μl of artificial cerebro-spinal fluid was added thereto. For a control group, the same amounts of DMSO and artificial cerebro-spinal fluid were mixed and administered. Using a 50 μl Hamilton microsyringe and a needle-equipped cannula, a total volume of 5 μl was given by intracerebroventricular administration. A 26-gauge needle for intracerebroventricular administration was used.
(§5) To create a mouse model of fibromyalgia, ICS (Intermittent Cold Stress) was loaded. […]
as §1, §2

[5] = system: PLA2; test: Thermal nociception test (Hargreaves) in ICS stress mice given BEL i.c.v.; conditions: between P1 and P5, significant change at P3, two doses
Protocol: as §3, §4, §5
Prior to the experiment, each mouse was placed on a glass plate and covered with a cage from above, and the animal was acclimated to the same environment as the experiment for not less than 1 hour. A thermal stimulus was given to a hind paw of the mouse; when the mouse behaved to escape the stimulus, the automatically measured value was read. […]
as §2

[6] = SART (ICS) stress loading group, day 1 of stress loading, 10 μg i.c.v. once daily
[7] = SART (ICS) stress loading group, day before stress loading, 10 μg i.c.v. once daily
[8] = SART (ICS) stress loading group, pretreated i.c.v.
[9] = SART (ICS) stress loading group
[10] = treated normal control group (no stress), day 1 of stress loading

Molecule	pain threshold value (PWT) [1, 6] [g]	pain threshold value (PWT) [1, 7] [g]	persistence of hypersensitive response [2, 9]	pain threshold value (PWT) [2, 6] [g]	pain threshold value (PWT) [2, 7] [g]	also measured
5′-AGCTGCCATGACAGTGCTGT-3′ (DNA, backbone and methylation of C not given here) [LPA1 AS-ODN]	8.76 ± 0.5	9.77 ± 0.4	–	–	–	hypersensitive response / chronic pain after SART (ICS) stress, measured over days [1, 8]: no hypersensitive responses were noted; also recorded: suppressed; threshold values of treated normal control group versus Vehicle and LPA1 MS-ODN groups ([1]; normal control group (no stress)): comparable
5′-CGATACACTAGAACGCTCGA-3′ (DNA, backbone and methylation of C not given here) [MS-ODN]	5.68 ± 0.7	9.59 ± 0.3	at least 19 days	5.79 ± 0.1	9.58 ± 0.3	persistence of hypersensitive response [1, 9]: at least 19 days; pain threshold value (PWT) [1, 10]: 9.49 ± 0.2 g; pain threshold value (PWT) [2, 10]: 9.65 ± 0.3 g
5′-GTTCTCGCAGTCGCAGGAGT-3′ (DNA GTTCTCGCAGTCGCAGGAGT; listed as DNA, chemistry not given here) [ATX-MS, ATX missense control oligonucleotide]	–	–	–	–	–	mechanical nociceptive response threshold values after ICS stress loading [3]: significant reductions
5′-TACTACAACGAGACCATCGG-3′ (DNA, backbone and methylation of C not given here) [LPA2 AS-ODN]	–	–	at least 19 days	6.43 ± 0.1	9.77 ± 0.5	suppression of SART (ICS) stress-induced pains [2, 8]: no suppression
O=C1O/C(=C/Br)CCC1c1cccc2ccccc12 (stereo not shown) [BEL, Bromoenol lactone]	–	–	–	–	–	reductions of mechanical nociceptive response threshold values due to ICS stress [4]: tended to be suppressed; thermal hyperalgesia due to ICS stress [5]: tended to be suppressed
